Laboratory results taken from patent US20070203141A1 (BOEHRINGER INGELHEIM PHARMACEUTICALS, INC., priority 2001, published 2007).
Where “and” joins values, the source holds several entries; their conditions need not be identical. Equal values may be shown once.

Key:
TNFα [1] = experiment: Single dose rising trial (U00-1627), ex vivo TNFα inhibition; assay type: in vivo, human; conditions: single dose rising trial U00-1627
Protocol: (§1) Thus, 4 mg would be efficacious in inhibiting TNFα production.
This discrepancy between in vivo and ex vivo and in vivo and in vitro was also observed in cynomolgus monkeys (U99-3145).

[2] = Once daily for 7 days multiple dose study, pharmacokinetics; assay type: in vivo; conditions: human
Protocol: (§2) This was a randomized, double-blind, placebo-controlled (2:6 ratio per dose group), multiple dose (20, 50 and 150 mg) study to assess pharmacokinetics, pharmacodynamics, safety and tolerability using a tablet formulation administered once a day for one week. Safety was determined by adverse events, laboratory tests, and physical examination. Kinetics were assessed by measuring plasma levels of drug and pharmacodynamics was assessed ex vivo by the effects of LPS induced production of TNFα, and the TNFα or fMLP induced activation state of PMN in human whole blood as measured by the ratio of Mac-1/Lselectin cell surface expression. Twenty-four healthy male volunteers (mean age 30 years, mean weight 76 kg) were studied. […] Two subjects receiving the 150 mg dose developed acne. There were no clinically significant changes in laboratory assessments except for a dose related, reversible rise in AST and ALT. […] This transaminase increase was not associated with changes in other liver function tests, nor was it associated with any liver related signs or symptoms. […] Steady-state was attained within 2 days.

plasma TNFα production = experiment: Cynomolgus monkey endotoxin model, IV dosing just prior to LPS challenge; assay type: in vivo; conditions: vs vehicle
Excerpt: (§3) As a surrogate model for man, we developed an endotoxin model in the cynomolgus monkey to examine the effect of p38 MAPK inhibitors on modulating TNFα production.

TNFα [3] = experiment: Once daily for 7 days study, ex vivo LPS induced production of TNFα in human whole blood; conditions: any of the doses used (20, 50, 150 mg once daily for 7 days)
Protocol: as §2

[4] = test system: PMN (neutrophil) activation in human whole blood; experiment: Once daily for 7 days study, ex vivo TNFα or fMLP induced activation state of PMN (Mac-1/Lselectin ratio); assay type: in vivo
Protocol: as §2

[5] = Phase 1 single dose trial, pharmacokinetics; assay type: in vivo; conditions: human, 4 mg single dose
Protocol: as §1

[6] = Once daily for 7 days multiple dose study, safety and tolerability; assay type: in vivo, human
Protocol: Transaminase levels peaked 2 to 4 days after the end of drug therapy on day 7 with resolution over the next 7 to 14 days.
as §2

[7] = test system: TNFα release, monkey whole blood; experiment: TNFα release from LPS stimulated monkey whole blood; assay type: cell-based
Excerpt: as §3

[8] = Twice daily for 14 days Phase I study, safety; assay type: in vivo, human; conditions: for Subjects with transaminase values above the upper limit of normal: preliminary analysis, placebo 2
Protocol: (§4) This study was a Phase I, randomized, double-blind, placebo-controlled, multiple-dose trial to investigate the safety and pharmacokinetics of 15 or 30 mg of an orally available p38MAPK inhibitor administered twice daily compared to placebo for 14 days. Subjects were 49 healthy males, 16 per treatment group (one subject on placebo was discontinued). […] Based on preliminary analysis of this study, 9 of 48 subjects had transaminase values above the upper limit of normal (UNL), 2 in the placebo, 3 in the 15 mg dose group and 4 in 30 mg dose group. Three subjects experienced ALT rises 2-3 fold greater than UNL, one in each dose group. […] There were no relevant changes in other laboratory studies, EKGs or physical examinations.

TNFα production [9] = experiment: Mouse model of LPS-induced TNFα production; assay type: in vivo; conditions: dosed orally 30 minutes prior to LPS challenge
[10] = Twice daily for 14 days Phase I study, pharmacokinetics; assay type: in vivo; conditions: human
Protocol: as §4

[11] = test system: TNFα release from LPS stimulated human PBMC; experiment: TNFα release from LPS stimulated human PBMC; assay type: cell-based
[12] = test system: TNFα release, human whole blood; experiment: TNFα release from LPS stimulated human whole blood; assay type: cell-based
TNFα production [13] = experiment: Cynomolgus monkey endotoxin model, duration of action, PO chewable tablets 12 hours prior to LPS; assay type: in vivo; conditions: for Inhibition of TNFα production: vs placebo; for Peak plasma level: cynomolgus monkey
Excerpt: as §3

TNFα production [14] = experiment: Human endotoxemia trial, LPS-induced TNFα production; assay type: in vivo; conditions: for Inhibition of LPS-induced TNFα production: human, vs placebo
Excerpt: Intravenous administration of endotoxin represents a safe, well-defined model of acute inflammation in humans. It is also an excellent tool to study the mechanisms contributing to inflammatory responses in man in vivo.
The endotoxin (LPS) was obtained from: Escherichia coli LPS (lot G; United States Pharmacopoeial Convention, Rockville, Md. USA).
Percent inhibition was obtained by calculating the percent difference between the median peak plasma pharmacodynamic endpoint concentrations of the placebo group and the maximum endpoint concentration achieved by each individual. […] [formula]

[15] = 150 mg once daily for 7 days, all 6 subjects

EC50 calculated from ex-vivo inhibition of TNFα (TNFα [1]): 1.228 µg/mL | Day 7 mean AUC0-24 ([2]; 20 mg once daily): 364 ng·h/mL | Day 7 mean Cmax ([2]; 20 mg once daily): 116 ng/mL | Day 7 mean AUC0-24 ([2]; 50 mg once daily): 1324 ng·h/mL | Day 7 mean Cmax ([2]; 50 mg once daily): 308 ng/mL | Day 7 mean AUC0-24 ([2]; 150 mg once daily): 5924 ng·h/mL | Day 7 mean Cmax ([2]; 150 mg once daily): 1108 ng/mL | Time to steady-state ([2]; once daily dosing): ≤ 2 days | Cmax [5]: 23.8 ± 5.71 ng/mL | IC50 [7]: 4000 nM | AUC0-12 (mean±SD) on day 14 ([10]; 15 mg twice daily): 334 ± 145 ng·h/mL | Cmax (mean±SD) on day 14 ([10]; 15 mg twice daily): 109 ± 51 ng/mL | AUC0-12 (mean±SD) on day 14 ([10]; 30 mg twice daily): 659 ± 449 ng·h/mL | Cmax (mean±SD) on day 14 ([10]; 30 mg twice daily): 208 ± 109 ng/mL | Mean elimination half-life ([10]; 15 or 30 mg twice daily for 14 days): 7.3 h | IC50 [12]: 800 nM
SMILES: Cc1ccc(-n2nc(C(C)(C)C)cc2NC(=O)Nc2ccc(OCCN3CCOCC3)c3ccccc23)cc1 [BIRB 796 BS]
Ex vivo inhibition of TNFα production (TNFα [1]; 50 mg): no inhibition was observed | Inhibition of plasma TNFα production (plasma TNFα production; 0.3 mg/kg IV just prior to LPS 400 ng/kg IV): not significantly inhibited | Inhibition of plasma TNFα production (plasma TNFα production; 1 mg/kg IV just prior to LPS 400 ng/kg IV, p<0.005): 85% | Inhibition of plasma TNFα production (plasma TNFα production; 3 mg/kg IV just prior to LPS 400 ng/kg IV, p<0.005): 90% | Ex vivo inhibition of TNFα (TNFα [3]): No inhibition | Ex vivo neutrophil activation ([4]; 4 hours post dosing): dose dependent inhibition | Ex vivo neutrophil activation ([4]; 24 hours post dosing, various dose levels): mixed pattern of neutrophil inhibition and activation | Change in γ-GT ([6]; 150 mg daily for seven days): small increase in γ-GT | Elevations in AST and ALT ([6]; 150 mg daily for seven days): moderate elevations in AST and ALT | Tolerability ([6]; 150 mg for seven days): not considered well tolerated | Rise in ALT above the upper limit of normal [6, 15]: ≤ 3.5 fold | Rise in AST above the upper limit of normal [6, 15]: ≤ 2 fold | Tolerability ([6]; doses up to 50 mg (20 and 50 mg) daily for 7 days): well tolerated | Subjects with transaminase values above the upper limit of normal ([8]; 15 mg twice daily group (16 per group)): 3 subjects | Subjects with transaminase values above the upper limit of normal ([8]; 30 mg twice daily group (16 per group)): 4 subjects | Tolerability ([8]; doses up to 30 mg twice daily for two weeks): well tolerated | ED50, inhibition of LPS-induced TNFα (TNFα production [9]): approximately 10 mg/kg | IC50 [11]: 21 nM | Inhibition of TNFα production (TNFα production [13]; 1 mg/kg PO 12 hours prior to IV LPS, NS): 44% | Inhibition of TNFα production (TNFα production [13]; 3 mg/kg PO 12 hours prior to IV LPS, p<0.05): 61% | Inhibition of TNFα production (TNFα production [13]; 20 mg/kg PO 12 hours prior to IV LPS, p<0.01): 84% | Peak plasma level (TNFα production [13]; 1 mg/kg PO chewable tablets): 0.003 µM | Peak plasma level (TNFα production [13]; 3 mg/kg PO chewable tablets): 0.02 µM | Peak plasma level (TNFα production [13]; 20 mg/kg PO chewable tablets): 1.4 µM | EC50 for inhibiting TNFα production in vivo (TNFα production [14]; Emax model, plasma concentration ten minutes prior to LPS challenge): 0.02372 µg/mL | Emax (% Inhibition), TNFα (TNFα production [14]; Emax model, pre-LPS challenge plasma concentration vs percent inhibition of peak TNFα): 95% and 95.34% | Inhibition of LPS-induced TNFα production (TNFα production [14]; 50 mg orally 3 hours prior to LPS challenge): 88% | Inhibition of LPS-induced TNFα production (TNFα production [14]; 600 mg orally 3 hours prior to LPS challenge): 97%
